From paper PMC11012289, “The Discovery of New Inhibitors of Insulin-Regulated Aminopeptidase by a High-Throughput Screening of 400,000 Drug-like Compounds” (International Journal of Molecular Sciences, 2024)

Legend:
[1] = biological target: T1, IRAP (Homo sapiens, UniProt Q9UIQ6); assay: Primary fluorescence IRAP assay (L-Leucine-7-amido-4-methylcoumarin cleavage); assay type: biochemical; conditions: for IC50 / Fluorescence pIC50: 37.5 µM L-Leucine-7-amido-4-methylcoumarin, 60 min RT, dose-response 20 µM-27.4 nM; for IC50: read-out: Fluorescence IC50; for LipE: calculated from (pIC50Fluorescence − LogD)
T1 construct: The screen was performed with the soluble truncated IRAP enzyme; made in house
T1 sequence (Q9UIQ6 155-1025 limits assumed): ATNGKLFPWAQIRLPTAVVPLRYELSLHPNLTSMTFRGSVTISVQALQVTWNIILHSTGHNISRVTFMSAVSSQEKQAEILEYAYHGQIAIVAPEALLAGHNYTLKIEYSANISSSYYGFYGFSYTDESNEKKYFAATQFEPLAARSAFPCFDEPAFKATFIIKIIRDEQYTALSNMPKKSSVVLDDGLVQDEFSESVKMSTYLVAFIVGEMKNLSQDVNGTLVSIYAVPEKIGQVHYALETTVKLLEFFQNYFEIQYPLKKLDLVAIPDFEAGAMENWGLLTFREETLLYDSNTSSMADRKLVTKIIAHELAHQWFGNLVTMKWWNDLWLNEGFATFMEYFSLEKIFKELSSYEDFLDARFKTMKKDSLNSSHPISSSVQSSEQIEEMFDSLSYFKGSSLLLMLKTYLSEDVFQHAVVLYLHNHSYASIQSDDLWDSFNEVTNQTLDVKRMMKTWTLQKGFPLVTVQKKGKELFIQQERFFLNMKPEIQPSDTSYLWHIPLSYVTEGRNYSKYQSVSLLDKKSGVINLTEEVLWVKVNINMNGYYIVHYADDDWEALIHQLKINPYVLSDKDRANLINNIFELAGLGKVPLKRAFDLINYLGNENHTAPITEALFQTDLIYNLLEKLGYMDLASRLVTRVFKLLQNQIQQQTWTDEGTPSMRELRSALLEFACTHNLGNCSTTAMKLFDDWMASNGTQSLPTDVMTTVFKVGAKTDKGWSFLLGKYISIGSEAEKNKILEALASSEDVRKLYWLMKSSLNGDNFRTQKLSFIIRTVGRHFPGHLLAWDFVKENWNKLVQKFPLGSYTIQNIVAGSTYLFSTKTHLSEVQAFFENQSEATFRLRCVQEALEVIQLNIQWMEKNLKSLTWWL
Description: The primary biochemical assay was developed to measure the enzymatic activity of IRAP.
To ensure biochemically sound, optimal, robust, and affordable assay conditions for large-scale screening, several factors need to be considered. […] For both primary fluorescence and orthogonal absorbance assays, non-binding 1536-well assay plates were used, and 0.05% BSA was included in the assay buffer to minimize the issues associated with protein sticking to plastics. The substrate Km values were determined in two separate experiments using two different batches of IRAP protein. For this, the IRAP progress curve was monitored every 5 min for 2 h using an Envision multimode plate reader (PerkinElmer, Waltham, MA, USA).
First, 10 nL of test compounds (4 mM) or 100% DMSO was dispensed into the 1536-well assay plates using an Echo acoustic liquid handler (Beckman Coulter, Brea, CA, USA). Then, 2 μL of protein working solution (5 × 10^−4 mg/mL) was dispensed to the negative control (min effect) and compound wells (final well concentration 2.5 × 10^−4 mg/mL) using a Certus Flex liquid dispenser (Fritz Gyger AG, Thun, Switzerland) and 2 μL assay buffer to the positive control wells (max effect) using a FLEXdrop (PerkinElmer, Waltham, MA, USA).
Figure S9. Reference compounds in Fluorescence IRAP assay with different end volumes in 1536-well format.
mg/ml) and 2 or 4 µL L -Leucine-7-amido-4-methylcoumarin (f.a.c.
Plates were measured on the Envision every 10 minutes for 140 minutes (data
shown up to 2 hours). %Effect was calculated using no protein as MAX effect (assay buffer was added instead of IRAP).

[2] = biological target: T1, IRAP; assay: Deselection fluorescence IRAP assay with 10 µM zinc; assay type: biochemical; conditions: 10 µM ZnSO4 in assay buffer; for IC50: read-out: Fluorescence + Zn pIC50 (converted)
Experimental: To prepare the assay buffer (50 mM Tris-HCl pH 7.4, 150 mM NaCl, 0.1 mM PMSF, 0.05% BSA) of the primary and orthogonal assays, 1 M Tris-HCl was prepared by dissolving 60.57 g Trizma-base (Mw 121.14 g/mol) (Sigma 93362-250G) in 500 mL MQ water, and the pH was adjusted to 7.4 using 4 M HCl. The solution was filtered with a 0.45 μm filter and stored at room temperature (RT). Then, 2 M NaCl stock was prepared by dissolving 29.22 g NaCl (Mw 58.44 g/mol) (Sigma S7653-250G) in 250 mL MQ water. The solution was filtered with a 0.45 μm filter and stored at RT. Next, 100 mM Phenylmethanesulfonylfluoride (PMSF) stock was prepared by dissolving 1 g PMSF (Mw 174.19 g/mol) (Sigma 78830-1G) in 57.4 mL isopropanol (Sigma I9516-500ML) and stored at 4 °C. A 10% Bovine Serum Albumin (BSA) stock solution was prepared by dissolving 2 g BSA (Mw 66.5 kDa) (Sigma A7030-50G), which was dissolved in 20 mL MQ water. The solution was filtered with a 0.45 μm filter, aliquoted, and stored at −20 °C. For the deselection assay buffer (50 mM Tris-HCl pH 7.4, 150 mM NaCl, 0.1 mM PMSF, 0.05% BSA, 10 μM ZnSO4), 1 mM ZnSO4 solution was prepared by dissolving 28.8 mg ZnSO4 (Mw 287.56 g/mol) (Sigma Z0251-100G) in 100 mL MQ water. The solution was filtered with a 0.45 μm filter and stored at RT. For the TSA assay buffer (50 mM Tris HCL, 150 mM NaCl, pH 7.4), stocks of 1 M Tris HCL and 2 M NaCl were prepared as described above.

[3] = biological target: T1, IRAP; assay: Orthogonal absorbance IRAP assay (L-Leucine para-nitroanilide cleavage); assay type: biochemical; conditions: 1 mM L-Leucine p-Nitroanilide, 120 min RT; for IC50: read-out: Absorbance pIC50 (converted)
Description: The primary biochemical assay was developed to measure the enzymatic activity of IRAP. […] To establish an orthogonal assay, an alternative L-Leucine para-nitroanilide substrate was used, which IRAP turns over to L-Leucine and para-nitroaniline and is measurable by absorbance at 405 nm (Supplementary Figure S2B).
To ensure biochemically sound, optimal, robust, and affordable assay conditions for large-scale screening, several factors need to be considered. These include the final concentration of substrates, based on the determined substrate Km value; the assay kinetics and reaction linearity; achieving a minimal, rate limiting protein concentration; identifying optimal buffer additives and concentrations; the choice of assay plate type; the final assay volume per well; the stability of reagents; the magnitude and variance of the signal; and the potency and rank order of reference compounds. For both primary fluorescence and orthogonal absorbance assays, non-binding 1536-well assay plates were used, and 0.05% BSA was included in the assay buffer to minimize the issues associated with protein sticking to plastics. The substrate Km values were determined in two separate experiments using two different batches of IRAP protein. For this, the IRAP progress curve was monitored every 5 min for 2 h using an Envision multimode plate reader (PerkinElmer, Waltham, MA, USA). […] To evaluate if using substrate concentrations close to the determined Km values results in sufficient dynamic range within the linear range of the enzymatic reaction, Z′ and S/B were calculated for multiple time points up to 2.5 h in the presence and absence of reference compounds in both assays. The primary fluorescence assay reached an optimal Z′-value after 1 h when using 37.5 μM substrate (Supplementary Figure S5). For the absorbance, 2 h was required for the enzyme reaction time; however, using ~0.4 mM substrate was associated with increased assay variation and a poor Z′ (Supplementary Figure S6).
The orthogonal assay was performed in a black non-binding 1536-well plate (Corning 3728) and sealed with universal lids (Corning 3098). First, 20 nL of test compounds (4 mM) or 100% DMSO was dispensed into the 1536-well assay plates using an Echo acoustic liquid handler (Beckman Coulter). Then, 4 μL of protein working solution (5 × 10^−4 mg/mL) was dispensed to the negative control (min effect) and compound wells (final well concentration 2.5 × 10^−4 mg/mL) using the Certus Flex liquid dispenser (Fritz Gyger AG) and 4 μL assay buffer to the positive control wells (max effect) using the FLEXdrop (PerkinElmer). Next, 4 μL of 2 mM substrate working solution was dispensed into all wells using the FLEXdrop (final well concentration 1 mM). The assay plates were then centrifuged at 187.5× g for 30 s, incubated in the dark at RT for 120 min, and finally read on an Envision plate reader (PerkinElmer) (absorbance at 405 nm, 10 flashes per second). During the dose–response curve analysis in the orthogonal assay, 80 nL of compound (range 2.00 × 10^−3 M–2.74 × 10^−6 M) or 100% DMSO was dispensed into the assay plates using an Echo acoustic liquid handler (Beckman Coulter) with final well concentration range of 20 μM–27.4 nM compound and 1% DMSO.

[4] = biological target: T1, IRAP; assay: Thermal shift (TSA) IRAP assay; assay type: binding; conditions: screening hits at 30 µM, 1% DMSO
Description: The Thermal shift assay (TSA) is a biophysical technique measuring protein thermal stability. The assay relies on a fluorescent dye that is quenched in an aqueous environment but fluoresces when de-solvated in non-polar environments, such as the hydrophobic pockets of proteins. The target protein is mixed with the dye and heated gradually until it becomes completely denatured; as it unfolds or melts, the dye binds to newly exposed hydrophobic regions of the protein, resulting in a significant increase in fluorescence emission detected by a PCR system. The melting temperature (Tm) is calculated from the protein melt curve, and changes in Tm (known as ΔTm) are correlated with changes in protein stability and ligand binding. […] For the TSA assay, vehicle (DMSO) or compound was dispensed into MicroAmp Endura optical qPCR plates at the desired volume using an Echo acoustic liquid handler. […] The plates were then centrifuged for 10 s at 1000 rpm and sealed with Clear PCR-compatible plate seals.

[5] = set-up: method as in ELF screening history; conditions: ref ELF screening history, cited from earlier work; for Enzyme Active: number of ELF enzyme screens in which the compound was active; for Targets active: number of ELF screens in which the compound was active; for Enzyme Active %: share of ELF enzyme targets screened; for Targets Active %: share of all ELF targets screened

| Compound | IC50 [1] | LipE [1] | IC50 [2] | IC50 [3] | ΔTm at 30 µM [4] | Enzyme Active [5] | Targets active [5] | Enzyme Active % [5] | Targets Active % [5] | Fluorescence pIC50 [1] | Fluorescence + Zn pIC50 [2] | Absorbance pIC50 [3] | TSA (∆°C), thermal shift of IRAP [4] |
| --- | --- | --- | --- | --- | --- | --- | --- | --- | --- | --- | --- | --- | --- |
| O=C(Cc1cc(N2CCCCC2)nc(-c2cccc(F)c2)n1)NO [QHL21] | 2.95 µM | 2.57 | 2.82 µM | 5.62 µM | 2.66 °C | 6 | 9 | 6.9% | 6.3% |  |  |  |  |
| CC(C)CC(C(=O)NO)S(=O)(=O)N1CCN(c2ccc(F)cc2)CC1 (centres unmarked) [QHL24] | 3.09 µM | 3.57 | 5.5 µM | 3.02 µM | 4 °C | 2 | 2 | 5.4% | 3.5% |  |  |  |  |
| CC(C)n1cc(C(=O)N2CCc3n[nH]c(-c4cccc(F)c4)c3CC2)cn1 [QHL25] | 3.16 µM | 2.30 | 3.47 µM | > 20 µM | 0 °C | 2 | 2 | 4.8% | 2.6% |  |  |  |  |
| O=C(C1CCCCC1)N1CCC[C@@H]1c1cc(-c2cccnc2)on1 [QHL27] | 3.24 µM | 2.14 | 5.13 µM | 10.7 µM | 1.48 °C | 4 | 5 | 5.0% | 3.4% |  |  |  |  |
| CSc1[nH]c(-c2ccccc2)nc1S(=O)(=O)c1ccccc1 [QHL28] | 3.24 µM | 1.54 | 5.62 µM | 15.5 µM | 0.15 °C | 4 | 6 | 4.3% | 4.0% |  |  |  |  |
| O=C(Cc1cc(N2CCCCCC2)nc(-c2ccc(Cl)cc2)n1)NO [QHL29] | 3.31 µM | 1.60 | 3.24 µM | 2.95 µM | 1.92 °C | 10 | 14 | 11.8% | 10.2% |  |  |  |  |
| Fc1ccc(F)c(Cn2ccc3ncccc32)c1Cl [QHL31] | 3.47 µM | 1.05 |  |  | 0 °C | 5 | 8 | 5.3% | 5.3% | 5.46 | 5.38 | <4.70 |  |
| CCCNc1nc(N(C)C)nc2cc(OC)c(OC)cc12 [QHL32] | 3.47 µM | 3.10 | 6.17 µM | > 20 µM | 0.15 °C | 1 | 2 | 2.4% | 2.6% |  |  |  |  |
| COc1cc2c(cc1-c1cnco1)C(=O)N(C)C(C)(C=Cc1ccncc1)N2 (centres unmarked) [QHL33] | 3.72 µM | 3.82 |  |  |  | 4 | 5 | 4.3% | 3.4% | 5.43 | 5.42 | 5.510 | 0.74 °C |
| Nc1nc2cc(C(=O)O)ccc2n1Cc1cc(F)cc(F)c1 [QHL34] | 3.89 µM | 3.88 |  |  |  | 1 | 2 | 1.3% | 1.4% | 5.41 | 5.39 | < 4.70 | 0.3 °C |
| COc1cc(CN2C(Cc3ccc(S(C)(=O)=O)cc3)CCC2c2cccnc2)cc(OC)c1 (centres unmarked) [QHL35] | 3.98 µM | 1.15 |  |  |  | 6 | 8 | 6.8% | 5.5% | 5.40 | 5.34 | 4.85 | 0 °C |
| O=C(N1CCCC1)C1(CNS(=O)(=O)c2cccc3ccccc23)CC12CCCCC2 (centres unmarked) [QHL37] | 4.37 µM | 1.74 |  |  |  | 5 | 7 | 12.2% | 9.3% | 5.36 | 5.36 | < 4.70 | 0.15 °C |
